Experimental data published in the supplement of paper PMC10307832.

How the values were obtained:
Experiment in all cases: relative viability (nuclei count vs DMSO), 5 days (fraction); higher = more cells survive
IDH-C35 + Lapatinib = compound: Cc1ccccc1C(C(=O)NC1CCCCC1)N(C(=O)Cn1ccnc1C)c1cccc(F)c1 [IDH-C35] + CS(=O)(=O)CCNCc1ccc(-c2ccc3ncnc(Nc4ccc(OCc5cccc(F)c5)c(Cl)c4)c3c2)o1 [Lapatinib] (partner 2 µM)
Summary of the method: (§1)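 Relative viability divides the nuclei count in treated wells by that in vehicle wells. Lung cancer cell lines were seeded in 1536-well plates, dosed by pin tool the next day, and fixed and stained after 5 days in one step with final 0.05% Triton X-100, 1% formaldehyde and 1 ug/ml Hoechst. Dosing was a single drug or a fixed anchor-drug dose plus five library-drug doses (not always all listed) in √10 steps, and values are medians of duplicate plates imaged at 4×.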

IDH-C35 + AZD7762 = compound: Cc1ccccc1C(C(=O)NC1CCCCC1)N(C(=O)Cn1ccnc1C)c1cccc(F)c1 [IDH-C35] + NC(=O)Nc1cc(-c2cccc(F)c2)sc1C(=O)N[C@H]1CCCNC1 [AZD7762] (partner 0.2 µM)
Summary of the method: as §1

IDH-C35 + Luminespib = compound: Cc1ccccc1C(C(=O)NC1CCCCC1)N(C(=O)Cn1ccnc1C)c1cccc(F)c1 [IDH-C35] + CCNC(=O)c1noc(-c2cc(C(C)C)c(O)cc2O)c1-c1ccc(CN2CCOCC2)cc1 [Luminespib] (partner 0.01 µM)
Summary of the method: as §1

[1] = compound: CC1=C(C(=NN1)C)CC2=C(C3=C(S2)N(C(=O)N(C3=O)C)CC(C)C)C(=O)N4C[C@@H](CO4)O + COc1cccc2cc(-c3nc([C@H]4CC[C@H](C(=O)O)CC4)n4ncnc(N)c34)[nH]c12 [OSI-027] (partner 0.5 µM)
Summary of the method: as §1

Cell Line | relative viability (IDH-C35 + Lapatinib; first compound 0.08 µM) | relative viability (IDH-C35 + Lapatinib; first compound 0.253 µM) | relative viability (IDH-C35 + Lapatinib; first compound 0.8 µM) | relative viability (IDH-C35 + Lapatinib; first compound 2.53 µM) | relative viability (IDH-C35 + Lapatinib; first compound 8 µM) | relative viability (IDH-C35 + AZD7762; first compound 0.08 µM) | relative viability (IDH-C35 + AZD7762; first compound 0.253 µM) | relative viability (IDH-C35 + AZD7762; first compound 0.8 µM) | relative viability (IDH-C35 + AZD7762; first compound 2.53 µM) | relative viability (IDH-C35 + AZD7762; first compound 8 µM) | relative viability (IDH-C35 + Luminespib; first compound 0.08 µM) | relative viability (IDH-C35 + Luminespib; first compound 0.253 µM) | relative viability (IDH-C35 + Luminespib; first compound 0.8 µM) | relative viability (IDH-C35 + Luminespib; first compound 2.53 µM) | relative viability (IDH-C35 + Luminespib; first compound 8 µM) | relative viability ([1]; first compound 0.0025 µM) | relative viability ([1]; first compound 0.007906 µM) | relative viability ([1]; first compound 0.025 µM) | relative viability ([1]; first compound 0.07906 µM) | relative viability ([1]; first compound 0.25 µM)
H3255 | 0.246 | 0.244 | 0.283 | 0.304 | 0.414 | 0.814 | 0.947 | 0.924 | 0.88 | 0.829 | 0.845 | 0.998 | 0.734 | 1.03 | 0.882 | 0.609 | 0.565 | 0.62 | 0.604 | 0.602
HARA | 0.784 | 0.84 | 0.828 | 0.78 | 0.809 | 0.362 | 0.422 | 0.318 | 0.22 | 0.383 | 0.783 | 0.761 | 0.637 | – | 0.617 | 0.548 | 0.565 | 0.513 | 0.506 | 0.489
HCC-15 | 0.892 | 0.776 | 0.931 | 0.776 | 0.781 | 1.33 | 1.1 | 1.08 | – | 1.35 | 0.246 | 0.251 | 0.178 | – | 0.314 | 0.707 | 0.705 | 0.691 | 0.737 | 0.784
HCC-44 | 0.946 | 1.02 | 0.979 | 1.04 | 1.02 | 1 | 0.982 | 0.999 | 1.03 | 1.01 | 1.06 | 1.06 | 0.986 | 1.04 | 1.05 | 0.676 | 0.376 | 0.413 | 0.516 | 0.747
HCC-827 | 0.183 | 0.211 | 0.173 | 0.218 | 0.228 | 0.218 | 0.266 | 0.221 | 0.206 | 0.228 | 0.788 | 0.526 | 0.472 | 0.569 | 0.516 | 0.812 | 0.793 | 0.756 | 0.759 | 0.952
HOP-62 | 0.945 | 1.06 | 1.01 | – | 0.948 | 0.624 | 0.553 | 0.739 | 0.519 | 0.532 | 0.944 | 0.849 | 0.822 | 0.923 | 0.927 | 0.896 | 0.849 | 0.756 | 0.763 | 0.909
LC-2-ad | 0.998 | 0.978 | 0.924 | 0.904 | 0.973 | 0.878 | 0.846 | 0.793 | 0.837 | 0.804 | 1.05 | 1.04 | 0.962 | – | 0.939 | 0.952 | 0.782 | 0.973 | 0.934 | 0.821
LCLC-97TM1 | 0.672 | 0.825 | 1.1 | – | 0.869 | 0.265 | 0.384 | 0.143 | – | 0.192 | 0.842 | 0.734 | 0.682 | 0.738 | 0.604 | 0.665 | 0.515 | 0.513 | 0.548 | 0.564
LK-2 | 0.836 | 1.01 | 0.758 | 0.735 | 0.932 | 0.422 | 0.542 | 0.37 | 0.444 | 0.336 | 0.173 | 0.177 | 0.205 | 0.176 | 0.184 | 0.201 | 0.184 | 0.204 | 0.189 | 0.228
LOU-NH91 | 0.798 | 0.813 | 0.776 | 0.749 | 0.767 | 0.805 | 0.73 | 0.753 | 0.765 | 0.815 | 0.331 | 0.368 | 0.297 | 0.354 | 0.328 | 0.719 | 0.714 | 0.715 | 0.84 | 0.727
LU99A | 1.08 | 0.909 | 0.938 | 0.984 | 1.12 | 0.326 | 0.398 | 0.396 | 0.335 | 0.36 | 0.244 | 0.286 | 0.239 | 0.236 | 0.25 | 0.339 | 0.335 | 0.347 | 0.309 | 0.294
LXF-289 | 0.9 | 0.893 | 0.91 | 0.965 | 0.877 | 1.1 | 1.06 | 1.13 | 1.06 | 1.19 | 0.512 | 0.631 | 0.654 | 0.697 | 0.676 | 0.902 | 0.785 | 0.734 | 0.819 | 0.749
NCI-H23 | 0.988 | 1.15 | 1.23 | 1.06 | 0.97 | 0.239 | 0.253 | 0.229 | 0.359 | 0.272 | 0.207 | 0.224 | 0.201 | 0.202 | 0.227 | 0.814 | 0.557 | 0.701 | 0.475 | 0.602
NCI-H322M | 0.541 | 0.59 | 0.625 | 0.529 | 0.608 | 0.532 | 0.65 | 0.476 | 0.538 | 0.546 | 0.921 | 0.784 | 0.826 | 0.833 | 0.942 | 0.529 | 0.539 | 0.483 | 0.64 | 0.5
NCI-H358 | 0.502 | 0.503 | 0.445 | 0.534 | 0.508 | 0.609 | 0.544 | 0.477 | 0.492 | 0.426 | 0.526 | 0.388 | 0.283 | 0.26 | 0.242 | 0.679 | 0.724 | 0.845 | 0.895 | 0.854
NCI-H460 | 1.19 | 1.11 | 0.978 | 0.888 | 0.963 | 0.623 | 0.663 | 0.609 | 0.586 | 0.578 | 0.0343 | 0.0424 | 0.0346 | 0.0408 | 0.0379 | 0.718 | 0.821 | 0.683 | 0.648 | 0.779
